Read-outs that look alike come from different tables or passages of the source.
How the values were obtained:
Type in all cases: cell-based
human M1 receptor = target: T1, human M1 receptor (Homo sapiens, UniProt P11229); assay: In vitro functional assay of muscarinic acetylcholine receptor activity (aequorin calcium flux, antagonist mode vs EC80 acetylcholine), M1
T1 sequence (P11229 1-460): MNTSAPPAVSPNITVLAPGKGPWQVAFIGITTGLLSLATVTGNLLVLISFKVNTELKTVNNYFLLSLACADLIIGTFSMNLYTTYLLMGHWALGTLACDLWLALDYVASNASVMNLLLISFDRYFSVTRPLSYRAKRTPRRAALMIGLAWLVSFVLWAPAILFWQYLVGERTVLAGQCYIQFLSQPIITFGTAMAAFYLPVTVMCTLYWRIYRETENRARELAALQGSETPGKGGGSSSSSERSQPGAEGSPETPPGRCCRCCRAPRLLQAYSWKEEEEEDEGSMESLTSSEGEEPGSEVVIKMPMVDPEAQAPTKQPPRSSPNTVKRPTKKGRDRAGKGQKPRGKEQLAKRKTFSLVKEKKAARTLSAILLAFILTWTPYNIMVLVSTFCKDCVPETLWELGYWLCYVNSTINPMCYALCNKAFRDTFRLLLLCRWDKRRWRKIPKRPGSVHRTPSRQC
In short: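 Antagonism at M1 was measured as a concentration-dependent reduction of the EC80 acetylcholine-evoked aequorin luminescence, from which IC50 was derived. Human M1 CHO-K1 aequorin cells were first loaded with 5 uM coelenterazine h for 4 h and exposed to compound for 30 min at room temperature.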

M2 = target: T2, M2 (Homo sapiens, UniProt P08172); assay: In vitro functional assay of muscarinic acetylcholine receptor activity, M2
T2 sequence (P08172 1-466): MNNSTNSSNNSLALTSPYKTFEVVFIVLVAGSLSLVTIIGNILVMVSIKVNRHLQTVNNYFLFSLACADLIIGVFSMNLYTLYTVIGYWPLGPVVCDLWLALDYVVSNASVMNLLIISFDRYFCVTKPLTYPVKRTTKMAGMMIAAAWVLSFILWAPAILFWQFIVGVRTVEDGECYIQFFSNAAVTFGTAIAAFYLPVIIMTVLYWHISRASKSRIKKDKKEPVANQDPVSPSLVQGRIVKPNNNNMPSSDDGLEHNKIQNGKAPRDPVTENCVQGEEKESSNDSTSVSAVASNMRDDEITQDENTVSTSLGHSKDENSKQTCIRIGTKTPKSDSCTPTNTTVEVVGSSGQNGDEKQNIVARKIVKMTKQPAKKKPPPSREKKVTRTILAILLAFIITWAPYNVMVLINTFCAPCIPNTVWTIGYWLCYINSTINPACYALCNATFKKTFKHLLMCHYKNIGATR

M3 = M3 (Homo sapiens, UniProt P20309); assay: In vitro functional assay of muscarinic acetylcholine receptor activity, M3
[1] = antagonist IC50 at M2, read-out: M2 IC50
[2] = antagonist IC50 at M3, read-out: M3 IC50
[3] = CHO-K1 cells stably expressing human M1 receptor with Aequorin, decrease in EC80 acetylcholine response, read-out: M1 IC50

Sequence of M3 (P20309 whole entry): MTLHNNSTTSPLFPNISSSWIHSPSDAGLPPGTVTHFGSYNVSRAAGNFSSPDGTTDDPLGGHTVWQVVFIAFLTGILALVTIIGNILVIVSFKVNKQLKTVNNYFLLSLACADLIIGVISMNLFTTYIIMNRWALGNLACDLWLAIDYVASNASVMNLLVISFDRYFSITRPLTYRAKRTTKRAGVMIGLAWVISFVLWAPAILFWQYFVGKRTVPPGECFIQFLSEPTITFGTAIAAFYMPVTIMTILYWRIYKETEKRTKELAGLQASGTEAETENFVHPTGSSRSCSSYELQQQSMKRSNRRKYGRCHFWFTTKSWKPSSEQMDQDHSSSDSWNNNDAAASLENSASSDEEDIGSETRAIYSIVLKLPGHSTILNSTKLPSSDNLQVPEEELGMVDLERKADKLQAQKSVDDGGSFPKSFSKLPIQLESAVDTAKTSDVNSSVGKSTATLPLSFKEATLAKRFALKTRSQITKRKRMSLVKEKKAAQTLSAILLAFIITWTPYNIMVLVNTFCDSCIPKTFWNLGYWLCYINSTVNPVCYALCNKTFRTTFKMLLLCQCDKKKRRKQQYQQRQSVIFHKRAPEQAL

| IC50 (human M1 receptor; [3]) [nM] | Structure (SMILES) | IC50 (human M1 receptor) [nM] | IC50 (M2; [1]) [nM] | IC50 (M3; [2]) [nM] | IC50 (M3) [nM] | IC50 (M2) [nM] |
| --- | --- | --- | --- | --- | --- | --- |
|  | N#Cc1ccc(N2C3CCC2CN(C(=O)CCNCc2cccc4nsnc24)C3)nc1 [Example 150, 6-[3-(3-{[(2,1,3-benzothiadiazol-4-yl)methyl]amino}propanoyl)-3,8-diazabicyclo[3.2.1]octan-8-yl]pyridine-3-carbonitrile] | 100 to 1000 | 1000 to 10000 | > 10000 |  |  |
| 1000 to 10000 | Cc1cc(C#N)ncc1N1CCN(C(=O)CCNCc2c(F)ccc3nccn23)[C@@H](C)C1 [Example 151, 5-[(3S)-4-{3-[({6-fluoroimidazo[1,2-a]pyridin-5-yl}methyl)amino]propanoyl}-3-methylpiperazin-1-yl]-4-methylpyridine-2-carbonitrile] |  | 1000 to 10000 | > 10000 |  |  |
|  | O=C(CCNCc1c(F)ccc2nccn12)N1CC2CCC(C1)N2c1ccc(C(F)(F)F)cn1 [Example 152, 3-[({6-fluoroimidazo[1,2-a]pyridin-5-yl}methyl)amino]-1-{8-[5-(trifluoromethyl)pyridin-2-yl]-3,8-diazabicyclo[3.2.1]octan-3-yl}propan-1-one] | < 100 | 1000 to 10000 | > 10000 |  |  |
| < 100 | Cc1cc(C(F)(F)F)ncc1N1CCN(C(=O)CCS(=O)(=O)c2cccc3ncsc23)[C@@H](C)C1 [Example 153, 3-(1,3-benzothiazole-7-sulfonyl)-1-[(2S)-2-methyl-4-[4-methyl-6-(trifluoromethyl)pyridin-3-yl]piperazin-1-yl]propan-1-one] |  | 100 to 1000 | 100 to 1000 |  |  |
|  | N#Cc1ccc(N2C3COCC2CN(C(=O)CCCc2cccc4ncccc24)C3)nc1 [Example 154, 6-{7-[4-(quinolin-5-yl)butanoyl]-3-oxa-7,9-diazabicyclo[3.3.1]nonan-9-yl}pyridine-3-carbonitrile] | < 100 | 1000 to 10000 |  | 100 to 1000 |  |
|  | O=C(CCNCc1cccc2ncnn12)N1CC2CCC(C1)N2c1ccc(Br)cn1 [Example 156, 1-[8-(5-bromopyridin-2-yl)-3,8-diazabicyclo[3.2.1]octan-3-yl]-3-[({[1,2,4]triazolo[1,5-a]pyridin-5-yl}methyl)amino]propan-1-one] | 100 to 1000 | 1000 to 10000 | 1000 to 10000 |  |  |
|  | O=C(CCNCc1cccc2ncnn12)N1CC2CCC(C1)N2c1ccc(Cl)cn1 [Example 157, 1-[8-(5-chloropyridin-2-yl)-3,8-diazabicyclo[3.2.1]octan-3-yl]-3-[({[1,2,4]triazolo[1,5-a]pyridin-5-yl}methyl)amino]propan-1-one] | < 100 | > 10000 | > 10000 |  |  |
|  | N#Cc1ccc(N2C3CCC2CN(C(=O)C(F)(F)CNCc2cccc4ncsc24)C3)nc1 [Example 158, 6-[3-(3-{[(1,3-benzothiazol-7-yl)methyl]amino}-2,2-difluoropropanoyl)-3,8-diazabicyclo[3.2.1]octan-8-yl]pyridine-3-carbonitrile] | 100 to 1000 |  | 1000 to 10000 |  | 100 to 1000 |
|  | N#Cc1cc(N2C3CCC2CN(C(=O)CCNCc2cccc4ncsc24)C3)ccn1 [Example 159, 4-[3-(3-{[(1,3-benzothiazol-7-yl)methyl]amino}propanoyl)-3,8-diazabicyclo[3.2.1]octan-8-yl]pyridine-2-carbonitrile] | < 100 | 1000 to 10000 | > 10000 |  |  |
|  | N#Cc1ccc(N2CC3CCC(C2)N3C(=O)CCNCc2cccc3ncsc23)nc1 [Example 160, 6-[8-(3-{[(1,3-benzothiazol-7-yl)methyl]amino}propanoyl)-3,8-diazabicyclo[3.2.1]octan-3-yl]pyridine-3-carbonitrile] | 100 to 1000 | 1000 to 10000 | > 10000 |  |  |
|  | Cc1cc(C#N)cnc1N1CC2CCC(C1)N2C(=O)CCNCc1cccc2ncsc12 [Example 161, 6-[8-(3-{[(1,3-benzothiazol-7-yl)methyl]amino}propanoyl)-3,8-diazabicyclo[3.2.1]octan-3-yl]-5-methylpyridine-3-carbonitrile] | 100 to 1000 | 1000 to 10000 | > 10000 |  |  |
| 100 to 1000 | N#Cc1ccc(N2CC3CCC2CN3C(=O)CCNCc2cccc3ncsc23)nc1 (stereo not drawn) [Example 162, 6-[5-(3-{[(1,3-benzothiazol-7-yl)methyl]amino}propanoyl)-2,5-diazabicyclo[2.2.2]octan-2-yl]pyridine-3-carbonitrile] |  | 1000 to 10000 | 1000 to 10000 |  |  |
|  | O=C(CCNCc1cccn2nccc12)N1CC2CCC(C1)N2c1ccc(Cl)cn1 [Example 163, 1-[8-(5-chloropyridin-2-yl)-3,8-diazabicyclo[3.2.1]octan-3-yl]-3-[({pyrazolo[1,5-a]pyridin-4-yl}methyl)amino]propan-1-one] | 100 to 1000 | 1000 to 10000 | > 10000 |  |  |
|  | N#Cc1ccc(N2C3CCC2CN(C(=O)CCN(Cc2cccc4ncnn24)C2CC2)C3)nc1 [Example 164, 6-(3-{3-[cyclopropyl({[1,2,4]triazolo[1,5-a]pyridin-5-yl}methyl)amino]propanoyl}-3,8-diazabicyclo[3.2.1]octan-8-yl)pyridine-3-carbonitrile] | < 100 | 1000 to 10000 | 1000 to 10000 |  |  |
|  | N#Cc1ccc(N2C3CCC2CN(C(=O)CCNCc2cccn4nccc24)C3)nc1 [Example 165, 6-(3-{3-[({pyrazolo[1,5-a]pyridin-4-yl}methyl)amino]propanoyl}-3,8-diazabicyclo[3.2.1]octan-8-yl)pyridine-3-carbonitrile] | 100 to 1000 | 1000 to 10000 | 1000 to 10000 |  |  |
|  | N#Cc1ccc(N2C3CCC2CN(C(=O)CNCCc2cccc4ncsc24)C3)nc1 [Example 166, 6-[3-(2-{[2-(1,3-benzothiazol-7-yl)ethyl]amino}acetyl)-3,8-diazabicyclo[3.2.1]octan-8-yl]pyridine-3-carbonitrile] | 100 to 1000 | 1000 to 10000 | 1000 to 10000 |  |  |
|  | O=C(CCNCc1c(F)ccc2nccn12)N1CC2CCC(C1)N2c1ccc(Cl)cn1 [Example 167, 1-[8-(5-chloropyridin-2-yl)-3,8-diazabicyclo[3.2.1]octan-3-yl]-3-[({6-fluoroimidazo[1,2-a]pyridin-5-yl}methyl)amino]propan-1-one] | < 100 | 1000 to 10000 | > 10000 |  |  |
|  | Cc1nc2cccc(CNCCC(=O)N3CC4CCC(C3)N4c3ccc(C#N)cn3)n2n1 [Example 168, 6-(3-{3-[({2-methyl-[1,2,4]triazolo[1,5-a]pyridin-5-yl}methyl)amino]propanoyl}-3,8-diazabicyclo[3.2.1]octan-8-yl)pyridine-3-carbonitrile] | 100 to 1000 | 1000 to 10000 | > 10000 |  |  |
|  | CN(CCC(=O)N1CC2CCC(C1)N2c1ccc(C#N)cn1)Cc1cccc2ncsc12 [Example 169, 6-[3-(3-{[(1,3-benzothiazol-7-yl)methyl](methyl)amino}propanoyl)-3,8-diazabicyclo[3.2.1]octan-8-yl]pyridine-3-carbonitrile] | 100 to 1000 |  | 1000 to 10000 |  | 100 to 1000 |
|  | CN(CCC(=O)N1CC2CCC(C1)N2c1ccc(C#N)cn1)Cc1cccc2ncnn12 [Example 170, 6-(3-{3-[methyl({[1,2,4]triazolo[1,5-a]pyridin-5-yl}methyl)amino]propanoyl}-3,8-diazabicyclo[3.2.1]octan-8-yl)pyridine-3-carbonitrile] | 100 to 1000 | 1000 to 10000 | 1000 to 10000 |  |  |
|  | N#Cc1ccc(N2C3CCC2CN(C(=O)CCNCc2cccc4ncnn24)C3)cc1 [Example 171, 4-(3-{3-[({[1,2,4]triazolo[1,5-a]pyridin-5-yl}methyl)amino]propanoyl}-3,8-diazabicyclo[3.2.1]octan-8-yl)benzonitrile] | 100 to 1000 | > 10000 | > 10000 |  |  |

| Structure (SMILES) | IC50 (human M1 receptor; [3]) [nM] | IC50 (human M1 receptor) [nM] | IC50 (M2; [1]) [nM] | IC50 (M3; [2]) [nM] | IC50 (M3) [nM] | IC50 (M2) [nM] |
| --- | --- | --- | --- | --- | --- | --- |
| N#Cc1ccc(N2C3CCC2CN(C(=O)CCNCc2cccc4ncccc24)C3)nc1 [Example 155, 6-[3-(3-{[(quinolin-5-yl)methyl]amino}propanoyl)-3,8-diazabicyclo[3.2.1]octan-8-yl]pyridine-3-carbonitrile] | 1000 to 10000 |  | > 10000 | > 10000 |  |  |
| O=C(CCNCc1c(F)ccc2nccn12)N1CC2CCC(C1)N2c1ccc(C2CC2)cn1 [Example 172, 1-[8-(5-cyclopropylpyridin-2-yl)-3,8-diazabicyclo[3.2.1]octan-3-yl]-3-[({6-fluoroimidazo[1,2-a]pyridin-5-yl}methyl)amino]propan-1-one] | 1000 to 10000 |  | 1000 to 10000 | > 10000 |  |  |

Reference: patent US11512090B2, “Muscarinic acetylcholine M1 receptor antagonists” (PIPELINE THERAPEUTICS, INC., priority 2018, dated 2022)
